# Test results published in US10603345B2, “Pharmaceutical composition for treating respiratory disease” (Kunming Institute of Botany, The Chinese Academy of Sciences, priority 2015, dated 2020).
# Columns and labels:
# Type in all cases: in vivo
# [1] = test system: KL-6 in serum of pulmonary fibrosis model mouse; experiment: Effect on KL-6 in serum of pulmonary fibrosis model mouse; settings: ELISA, bleomycin pulmonary fibrosis mouse, ig 28 d, dose/kg: prednisone acetate 5 mg, Test group 1 50, 2 25, 3 12.5, picrinine 5.0, vallesamine 3.0, scholaricine 3.5, 19-epi-scholaricine 1.0 mg, x ± SD
# Protocol: (§1) Animal source: 30˜35 g male ICR mouse, from laboratory animal department of Kunming Medical University, License No. SCXK (Dian) 2011-0004.
# (§2) Method and route: bleomycin was used to induce mouse pulmonary fibrosis, and after intragastrical administration for 28 d at a dose of 20 mL/kg, the animal was sacrificed at the 29th day.
# (§3) Group and dose: Sham group, Model group, Positive control group, prednisone acetate (5 mg/kg) group, Test group 1: picrinine, vallesamine, scholaricine and 19-epischolaricine prepared in Example 1.7 were mixed at different ratios by weight (50 mg/kg), Test group 2: the alkaloid composition (25 mg/kg) prepared in Example 1.5, Test group 3: the alkaloid composition (12.5 mg/kg) prepared in Example 1.6, Picrinine group (5.0 mg/kg), Vallesamine group (3.0 mg/kg), Scholaricine group (3.5 mg/kg), and 19-epischolaricine group (1.0 mg/kg).
# (§4) Positive control drug: prednisone acetate tablet, Approval number: H33021207, 5 mg/tablet, produced by Zhejiang Xianju Pharmaceutical Co., Ltd., Batch No. 140146.
# (§5) Sample preparation: all the samples were prepared by using 0.5% carboxymethylcellulose sodium (0.5% CMC-Na).
# Group and dose: in Test group 1, the ratio of picrinine, vallesamine, scholaricine and 19-epischolaricine by weight was 45:38:30:8, and the other groups and doses thereof were as described in Example 12.
# Test index: KL-6 in serum was used as index, and was determined by enzyme linked immunosorbent assay.
# [2] = test system: Col-1 in homogenate of pulmonary fibrosis model mouse; experiment: Effect on Col-1 in homogenate of pulmonary fibrosis model mouse; settings: ELISA, bleomycin pulmonary fibrosis mouse, ig 28 d, dose/kg: prednisone acetate 5 mg, Test group 1 50, 2 25, 3 12.5, picrinine 5.0, vallesamine 3.0, scholaricine 3.5, 19-epi-scholaricine 1.0 mg, x ± SD
# Protocol: as §1, §2, §3, §4, §5
# Group and dose: in Test group 1, the ratio of picrinine, vallesamine, scholaricine and 19-epischolaricine by weight was 20:17:17:4, and the other groups and doses thereof were as described in Example 12.
# Test index: Col-1 in homogenate was used as index, and was determined by enzyme linked immunosorbent assay.
# [3] = test system: MDA in serum and homogenate of pulmonary fibrosis model mouse; experiment: Effect on MDA in serum and homogenate of pulmonary fibrosis model mouse; settings: bleomycin pulmonary fibrosis mouse, ig 28 d, dose/kg: prednisone acetate 5 mg, Test group 1 50, 2 25, 3 12.5, picrinine 5.0, vallesamine 3.0, scholaricine 3.5, 19-epi-scholaricine 1.0 mg, x ± SD
# Protocol: as §1, §2, §3, §4, §5
# Group and dose: in Test group 1, the ratio of picrinine, vallesamine, scholaricine and 19-epischolaricine by weight was 8:5:5:1, and the other groups and doses thereof were as described in Example 12.
# Test index: MDA in serum and homogenate was used as index, and was determined by thiobabituric acid method.
# [4] = test system: CRP in serum in COPD model mouse; experiment: Effect on CRP in serum in COPD model mouse; settings: ELISA, ig 7 d, dose/kg: dexamethasone 1 mg, Test group 1 50, 2 25, 3 10, picrinine 10, vallesamine 6, scholaricine 7, 19-epi-scholaricine 2 mg, x ± SD
# Protocol: (§6) Animal source: 25˜30 g male ICR mouse, from laboratory animal department of Kunming Medical University, License No. SCXK (Dian) 2011-0004.
# Method and route: lipopolysaccharide (LPS) plus smoke exposure was used for 30 days to induce mouse chronic obstructive pulmonary disease model; and after intragastrical administration for 7 d at a dose of 20 mL/kg, the animal was sacrificed at the eighth day.
# Picrinine group (10 mg/kg), Vallesamine group (6.0 mg/kg), Scholaricine group (7.0 mg/kg), 19-epischolaricine group (2.0 mg/kg).
# as §5
# Group and dose: in Test group 1, the ratio of picrinine, vallesamine, scholaricine and 19-epischolaricine by weight was 25:19:20:4, and the other groups and doses thereof were as described in Example 10.
# Test index: CRP in serum was used as index, and was determined by enzyme linked immunosorbent assay.
# [5] = test system: WBC count and eosinophil percentage in BALF of asthma model mouse; experiment: Effect on WBC count and eosinophil percentage in BALF of asthma model mouse; settings: OVA-induced asthma mouse, ig 7 d, dose/kg: dexamethasone 2 mg, Test group 1 50, 2 25, picrinine 5.0, vallesamine 3.0, scholaricine 3.0, 19-epi-scholaricine 3.5 mg, x ± SD
# Protocol: as §6
# (§7) Method and route: ovalbumin (OVA) was used to induce mouse asthma model, and after intragastrical administration for 7 d at a dose of 20 mL/kg, the animal was sacrificed at the eighth day.
# (§8) Test group 1: picrinine, vallesamine, scholaricine and 19-epischolaricine prepared in Example 1.7 were homogeneously mixed at different ratios by weight (50 mg/kg), Test group 2: the alkaloid composition prepared in Example 1.4 (25 mg/kg). […]
# as §5
# Group and dose: in Test group 1, the ratio of picrinine, vallesamine, scholaricine and 19-epischolaricine by weight was 41:45:28:7, and the other groups and doses thereof were as described in Example 11.
# Test index: number of white blood cells (WBCs) and number of eosinophil in bronchoalveolar lavage fluid (BALF) were used as index, and were determined by full-automatic hemocytometer.
# [6] = test system: IL-10 in BALF of asthma model mouse; experiment: Effect on IL-10 in BALF of asthma model mouse; settings: ELISA, ig 7 d, dose/kg: dexamethasone 2.0 mg, Test group 1 50, 2 25, picrinine 5.0, vallesamine 3.0, scholaricine 3.0, 19-epi-scholaricine 3.5 mg, x ± SD
# Protocol: as §6, §7, §8, §5
# Group and dose: in Test group 1, the ratio of picrinine, vallesamine, scholaricine and 19-epischolaricine by weight was 18:13:14:3, and the other groups and doses thereof were as described in Example 11.
# Test index: IL-10 in BALF was used as index, and was determined by enzyme linked immunosorbent assay.
# [7] = test system: SOD in serum and homogenate of pulmonary fibrosis model mouse; experiment: Effect on SOD in serum and homogenate of pulmonary fibrosis model mouse; settings: bleomycin pulmonary fibrosis mouse, ig 28 d, dose/kg: prednisone acetate 5 mg, Test group 1 50, 2 25, 3 12.5, picrinine 5.0, vallesamine 3.0, scholaricine 3.5, 19-epi-scholaricine 1.0 mg, x ± SD
# Protocol: as §1, §2, §3, §4, §5
# Group and dose: in Test group 1, the ratio of picrinine, vallesamine, scholaricine and 19-epischolaricine by weight was 10:7:7:2, and the other groups and doses thereof were as described in Example 12.
# Test index: SOD in serum and homogenate was used as index, and was determined by xanthine oxidase method.
Structure (SMILES),KL-6 [1] [U/mg prot],Col-1 [2] [μg/g prot],MDA Homogenate ([3]; homogenate) [nmol/mg prot],MDA Serum ([3]; serum) [nmol/mg prot],CRP [4] [pg/mL],Eosinophil percentage [5] [%],Number of WBCs [5],IL-10 [6] [pg/mL],SOD homogenate ([7]; homogenate) [U/mg prot],SOD Serum ([7]; serum) [U/mg prot]
"COC(=O)C1=C2Nc3c(O)cccc3[C@@]23CCN2C[C@@H]([C@H](C)O)[C@@H]1C[C@H]23 [19-epi-scholaricine, 19-epischolaricine]",4.10 ± 0.97,6.5 ± 2.2,22.0 ± 7.4,0.66 ± 0.18,–,–,–,–,–,–
C/C=C1/CN2[C@@H]3C[C@@]45c6ccccc6N[C@]4(O3)[C@@H]2C[C@@H]1[C@H]5C(=O)OC [picrinine],3.91 ± 0.60,–,–,–,23.5 ± 2.2,6.18 ± 3.61,0.91 ± 0.50 ×10^9/L,13.00 ± 3.15,53.2 ± 8.9,17.2 ± 5.1
C/C=C1/CN2CC[C@@H]1[C@@](CO)(C(=O)OC)c1[nH]c3ccccc3c1C2 [vallesamine],–,6.3 ± 2.7,–,–,23.8 ± 1.9,6.48 ± 2.84,0.73 ± 0.35 ×10^9/L,14.83 ± 3.49,–,–
